Results published in the supplement of paper PMC8253809.

Experiments:
iASTRO = astrocyte control; test: growth inhibition relative to DMSO (0) and positive control (1) (fraction); higher = more growth inhibition
Description: (§1)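 Paxalisib (GDC0084) x mirdametinib (PD0325901) dose matrix on pHGG cell lines and astrocyte controls, 7 days, adherent 384-well. CellTiter-Glo RLU was normalised (no log2) to fractional activity between DMSO (0) and the positive control (1). Each combination was tested in two plate orientations.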

DIPGX7 = H3.3 K27M diffuse intrinsic pontine glioma line; test: as above
Description: as §1

O=C(NOC[C@H](O)CO)c1ccc(F)c(F)c1Nc1ccc(I)cc1F + CC1(C)OCCn2c1nc1c(N3CCOCC3)nc(-c3cnc(N)nc3)nc12 [GDC0084]
growth inhibition
Details	compound 1 concentration 0.009766 µM	compound 1 concentration 0.01953 µM	compound 1 concentration 0.03906 µM	compound 1 concentration 0.07812 µM	compound 1 concentration 0.15625 µM	compound 1 concentration 0.3125 µM	compound 1 concentration 0.625 µM	compound 1 concentration 1.25 µM	compound 1 concentration 5 µM	compound 1 concentration 20 µM
DIPGX7, compound 2 concentration 0.03906 µM	-0.0325	-0.0312	-0.0934	-0.145	-0.164	-0.126	-0.119	0.0102	0.288	0.312
DIPGX7, compound 2 concentration 0.07812 µM	0.189	0.113	0.0974	0.0816	-0.0134	0.0326	0.0363	0.178	0.344	0.313
DIPGX7, compound 2 concentration 0.15625 µM	0.43	0.379	0.335	0.264	0.267	0.238	0.296	0.364	0.563	0.467
DIPGX7, compound 2 concentration 0.3125 µM	0.611	0.641	0.589	0.561	0.514	0.483	0.563	0.627	0.793	0.747
DIPGX7, compound 2 concentration 0.625 µM	0.781	0.802	0.8	0.791	0.779	0.782	0.841	0.884	0.941	0.918
DIPGX7, compound 2 concentration 1.25 µM	0.874	0.865	0.876	0.884	0.893	0.906	0.934	0.96	0.982	0.983
DIPGX7, compound 2 concentration 5 µM	0.937	0.933	0.938	0.962	0.972	0.98	0.99	0.999	1	1
DIPGX7, compound 2 concentration 20 µM	0.977	0.987	0.989	0.994	0.998	1	1	1	1	1
iASTRO, compound 2 concentration 0.03906 µM	0.0351	0.072	0.0628	0.082	0.097	0.097	0.102	0.0401	-0.0539	-0.0303
iASTRO, compound 2 concentration 0.07812 µM	0.0868	0.0655	0.0861	0.0688	0.093	0.134	0.15	0.0961	0.0858	0.0424
iASTRO, compound 2 concentration 0.15625 µM	0.123	0.128	0.113	0.0769	0.0999	0.115	0.0997	0.104	0.0381	0.0629
iASTRO, compound 2 concentration 0.3125 µM	0.0584	0.0952	0.0549	0.0979	0.0838	0.126	0.158	0.146	0.164	0.196
iASTRO, compound 2 concentration 0.625 µM	0.0444	0.0912	0.0357	0.0123	0.112	0.148	0.303	0.443	0.516	0.588
iASTRO, compound 2 concentration 1.25 µM	0.21	0.214	0.279	0.319	0.44	0.568	0.731	0.784	0.811	0.836
iASTRO, compound 2 concentration 5 µM	0.756	0.777	0.798	0.811	0.83	0.858	0.875	0.887	0.901	0.887
iASTRO, compound 2 concentration 20 µM	0.822	0.806	0.821	0.841	0.849	0.873	0.889	0.901	0.9	0.909

CC1(C)OCCn2c1nc1c(N3CCOCC3)nc(-c3cnc(N)nc3)nc12 [GDC0084] + O=C(NOC[C@H](O)CO)c1ccc(F)c(F)c1Nc1ccc(I)cc1F [PD0325901]
growth inhibition
Details	compound 1 concentration 0.009766 µM	compound 1 concentration 0.01953 µM	compound 1 concentration 0.03906 µM	compound 1 concentration 0.07812 µM	compound 1 concentration 0.15625 µM	compound 1 concentration 0.3125 µM	compound 1 concentration 0.625 µM	compound 1 concentration 1.25 µM	compound 1 concentration 5 µM	compound 1 concentration 20 µM
DIPGX7, compound 2 concentration 0.03906 µM	-0.121	-0.103	-0.085	0.0493	0.217	0.56	0.762	0.886	0.945	0.998
DIPGX7, compound 2 concentration 0.07812 µM	-0.0496	9.09e-05	0.0209	0.0495	0.252	0.537	0.775	0.88	0.956	0.997
DIPGX7, compound 2 concentration 0.15625 µM	-0.0185	0.0149	0.038	0.0769	0.248	0.507	0.771	0.891	0.965	0.999
DIPGX7, compound 2 concentration 0.3125 µM	-0.0519	0.0198	0.0847	0.101	0.248	0.522	0.802	0.91	0.983	1
DIPGX7, compound 2 concentration 0.625 µM	0.0193	0.0541	0.102	0.141	0.301	0.534	0.825	0.938	0.992	1
DIPGX7, compound 2 concentration 1.25 µM	0.138	0.158	0.168	0.231	0.351	0.606	0.868	0.961	0.998	1
DIPGX7, compound 2 concentration 5 µM	0.215	0.278	0.311	0.354	0.555	0.784	0.933	0.986	1	1
DIPGX7, compound 2 concentration 20 µM	0.18	0.195	0.238	0.323	0.539	0.765	0.933	0.988	1	1
iASTRO, compound 2 concentration 0.03906 µM	0.09	0.0454	0.118	0.094	0.0396	0.0144	-0.00856	0.184	0.758	0.807
iASTRO, compound 2 concentration 0.07812 µM	0.121	0.0878	0.134	0.118	0.109	0.12	0.0894	0.264	0.802	0.813
iASTRO, compound 2 concentration 0.15625 µM	0.0937	0.147	0.167	0.0963	0.0973	0.0664	0.0992	0.309	0.815	0.825
iASTRO, compound 2 concentration 0.3125 µM	0.149	0.11	0.135	0.176	0.144	0.0844	0.154	0.446	0.833	0.846
iASTRO, compound 2 concentration 0.625 µM	0.15	0.125	0.146	0.159	0.128	0.129	0.317	0.675	0.878	0.884
iASTRO, compound 2 concentration 1.25 µM	0.155	0.123	0.103	0.0682	0.108	0.207	0.459	0.766	0.878	0.893
iASTRO, compound 2 concentration 5 µM	0.108	0.0234	0.0231	0.0442	0.0662	0.219	0.546	0.791	0.875	0.891
iASTRO, compound 2 concentration 20 µM	0.14	0.0807	0.0709	0.0677	0.0926	0.24	0.627	0.821	0.881	0.902
